Data as given in ChEMBL document CHEMBL3885861, “Open TG-GATES”.

Organism: Rattus norvegicus
Assay: Open TG-GATES - Regimen: Daily Repeat
Assay type: toxicity, organism-based, Sprague-Dawley
Design: regimen Daily Repeat, gender Male, age 6 weeks
Conditions: in vivo, po, 10 mg/kg, route gavage, dose level Low; for APTT / Bas / Eos / Fbg / Hb / Ht / Lym / MCHC / MCV / Mono / Neu / PT / Plat / RBC / Ret / WBC: tissue Blood; for KIDNEY_L / KIDNEY_R / KIDNEY_TOTAL: tissue Kidney; for LIVER: tissue Liver; for ALP / ALT / AST / BUN / CRE / Ca / Cl / DBIL / GLC / IP / K / LDH / Na / PL / RALB / TBIL / TC / TG / TP / gamma-GTP: tissue Plasma

CS(=O)(=O)Nc1ccc([N+](=O)[O-])cc1Oc1ccccc1 [NIMESULIDE]
TERMINAL_BW (72 h, time 3 day): 219.5 g
APTT (72 h, time 3 day): 16.3 s
Bas (72 h, time 3 day): 0%
Eos (72 h, time 3 day): 1.2%
Fbg (72 h, time 3 day): 208.8 mg/dL
Hb (72 h, time 3 day): 14 g/dL
Ht (72 h, time 3 day): 41.3%
Lym (72 h, time 3 day): 74.8%
MCHC (72 h, time 3 day): 33.9%
MCV (72 h, time 3 day): 63.4 fL
Mono (72 h, time 3 day): 6.8%
Neu (72 h, time 3 day): 17%
PT (72 h, time 3 day): 11.4 s
Plat (72 h, time 3 day): 114.4 x10_4/uL
RBC (72 h, time 3 day): 651.8 x10_4/ul
Ret (72 h, time 3 day): 10%
WBC (72 h, time 3 day): 94 x10_2/uL
KIDNEY_L (72 h, time 3 day): 1 g
KIDNEY_R (72 h, time 3 day): 1 g
KIDNEY_TOTAL (72 h, time 3 day): 1.9 g
LIVER (72 h, time 3 day): 10.2 g
ALP (72 h, time 3 day): 1001.2 IU/L
ALT (72 h, time 3 day): 38.2 IU/L
AST (72 h, time 3 day): 62.8 IU/L
BUN (72 h, time 3 day): 18.8 mg/dL
CRE (72 h, time 3 day): 0.6 mg/dL
Ca (72 h, time 3 day): 10.8 mg/dL
Cl (72 h, time 3 day): 103.6 meq/L
DBIL (72 h, time 3 day): 0.056 mg/dL
GLC (72 h, time 3 day): 195 mg/dL
IP (72 h, time 3 day): 7.7 mg/dL
K (72 h, time 3 day): 4.9 meq/L
LDH (72 h, time 3 day): 105.6 IU/L
Na (72 h, time 3 day): 139.4 meq/L
PL (72 h, time 3 day): 145 mg/dL
RALB (72 h, time 3 day): 4 g/dL
TBIL (72 h, time 3 day): 0.3 mg/dL
TC (72 h, time 3 day): 80 mg/dL
TG (72 h, time 3 day): 75.8 mg/dL
TP (72 h, time 3 day): 5.5 g/dL
gamma-GTP (72 h, time 3 day): 1.2 IU/L
TERMINAL_BW ([…], time 7 day): 242.4 g
TERMINAL_BW ([…], time 14 day): 296.6 g
TERMINAL_BW ([…], time 28 day): 395.2 g
APTT ([…], time 7 day): 17.2 s
Bas ([…], time 7 day): 0%
Eos ([…], time 7 day): 1%
Fbg ([…], time 7 day): 220.8 mg/dL
Hb ([…], time 7 day): 14.3 g/dL
Ht ([…], time 7 day): 41.8%
Lym ([…], time 7 day): 75.2%
MCHC ([…], time 7 day): 34.2%
MCV ([…], time 7 day): 61.7 fL
Mono ([…], time 7 day): 8.2%
Neu ([…], time 7 day): 15.4%
PT ([…], time 7 day): 11.2 s
Plat ([…], time 7 day): 129.4 x10_4/uL
RBC ([…], time 7 day): 678.4 x10_4/ul
Ret ([…], time 7 day): 4.9%
WBC ([…], time 7 day): 103.5 x10_2/uL
APTT ([…], time 14 day): 17.9 s
Bas ([…], time 14 day): 0%
Eos ([…], time 14 day): 1%
Fbg ([…], time 14 day): 227.8 mg/dL
Hb ([…], time 14 day): 14.5 g/dL
Ht ([…], time 14 day): 42.4%
Lym ([…], time 14 day): 83.8%
MCHC ([…], time 14 day): 34.3%
MCV ([…], time 14 day): 62.7 fL
Mono ([…], time 14 day): 4.8%
Neu ([…], time 14 day): 10.8%
PT ([…], time 14 day): 11.8 s
Plat ([…], time 14 day): 117.1 x10_4/uL
RBC ([…], time 14 day): 676.2 x10_4/ul
Ret ([…], time 14 day): 5.6%
WBC ([…], time 14 day): 121.2 x10_2/uL
APTT ([…], time 28 day): 18.6 s
Bas ([…], time 28 day): 0%
Eos ([…], time 28 day): 1%
Fbg ([…], time 28 day): 214.2 mg/dL
Hb ([…], time 28 day): 15.2 g/dL
Ht ([…], time 28 day): 45%
Lym ([…], time 28 day): 80.8%
MCHC ([…], time 28 day): 33.9%
MCV ([…], time 28 day): 57.7 fL
Mono ([…], time 28 day): 6.4%
Neu ([…], time 28 day): 11.6%
PT ([…], time 28 day): 11.9 s
Plat ([…], time 28 day): 117.6 x10_4/uL
RBC ([…], time 28 day): 782.6 x10_4/ul
Ret ([…], time 28 day): 2.8%
WBC ([…], time 28 day): 102.3 x10_2/uL
KIDNEY_L ([…], time 7 day): 1.1 g
KIDNEY_R ([…], time 7 day): 1.1 g
KIDNEY_TOTAL ([…], time 7 day): 2.2 g
KIDNEY_L ([…], time 14 day): 1.2 g
KIDNEY_R ([…], time 14 day): 1.2 g
KIDNEY_TOTAL ([…], time 14 day): 2.4 g
KIDNEY_L ([…], time 28 day): 1.4 g
KIDNEY_R ([…], time 28 day): 1.4 g
KIDNEY_TOTAL ([…], time 28 day): 2.8 g
LIVER ([…], time 7 day): 11.6 g
LIVER ([…], time 14 day): 14.2 g
LIVER ([…], time 28 day): 16.7 g
ALP ([…], time 7 day): 890.6 IU/L
ALT ([…], time 7 day): 36.6 IU/L
AST ([…], time 7 day): 64.4 IU/L
BUN ([…], time 7 day): 20 mg/dL
CRE ([…], time 7 day): 0.5 mg/dL
Ca ([…], time 7 day): 10.5 mg/dL
Cl ([…], time 7 day): 105.4 meq/L
DBIL ([…], time 7 day): 0.016 mg/dL
GLC ([…], time 7 day): 200.8 mg/dL
IP ([…], time 7 day): 7.6 mg/dL
K ([…], time 7 day): 4.6 meq/L
LDH ([…], time 7 day): 97 IU/L
Na ([…], time 7 day): 140.4 meq/L
PL ([…], time 7 day): 159.6 mg/dL
RALB ([…], time 7 day): 4.1 g/dL
TBIL ([…], time 7 day): 0.3 mg/dL
TC ([…], time 7 day): 81.4 mg/dL
TG ([…], time 7 day): 97.8 mg/dL
TP ([…], time 7 day): 5.9 g/dL
gamma-GTP ([…], time 7 day): 1.4 IU/L
ALP ([…], time 14 day): 649.2 IU/L
ALT ([…], time 14 day): 30.6 IU/L
AST ([…], time 14 day): 63.6 IU/L
BUN ([…], time 14 day): 21 mg/dL
CRE ([…], time 14 day): 0.6 mg/dL
Ca ([…], time 14 day): 10.6 mg/dL
Cl ([…], time 14 day): 106.4 meq/L
DBIL ([…], time 14 day): 0 mg/dL
GLC ([…], time 14 day): 201.8 mg/dL
IP ([…], time 14 day): 7.1 mg/dL
K ([…], time 14 day): 4.6 meq/L
LDH ([…], time 14 day): 88.6 IU/L
Na ([…], time 14 day): 141 meq/L
PL ([…], time 14 day): 161 mg/dL
RALB ([…], time 14 day): 3.9 g/dL
TBIL ([…], time 14 day): 0.3 mg/dL
TC ([…], time 14 day): 78 mg/dL
TG ([…], time 14 day): 147.6 mg/dL
TP ([…], time 14 day): 5.9 g/dL
gamma-GTP ([…], time 14 day): 1.8 IU/L
ALP ([…], time 28 day): 745.8 IU/L
ALT ([…], time 28 day): 34.6 IU/L
AST ([…], time 28 day): 65.2 IU/L
BUN ([…], time 28 day): 20 mg/dL
CRE ([…], time 28 day): 0.6 mg/dL
Ca ([…], time 28 day): 10.6 mg/dL
Cl ([…], time 28 day): 108.4 meq/L
DBIL ([…], time 28 day): 0.004 mg/dL
GLC ([…], time 28 day): 197 mg/dL
IP ([…], time 28 day): 6.8 mg/dL
K ([…], time 28 day): 4.6 meq/L
LDH ([…], time 28 day): 95.2 IU/L
Na ([…], time 28 day): 144.2 meq/L
PL ([…], time 28 day): 147.2 mg/dL
RALB ([…], time 28 day): 4.1 g/dL
TBIL ([…], time 28 day): 0.3 mg/dL
TC ([…], time 28 day): 65.8 mg/dL
TG ([…], time 28 day): 167 mg/dL
TP ([…], time 28 day): 6.2 g/dL
gamma-GTP ([…], time 28 day): 1.8 IU/L
